Experimental data from patent US20250382305A1 (PTC THERAPEUTICS, INC., priority 2022, published 2025).
pIC50: −log10 of the molar value.

Assays:
[1] = test system: Total ATXN3 (tATXN3) protein; experiment: Endogenous Total ATXN3 (tATXN3) Protein Assay (MSD immunoassay of cell lysates); type: cell-based; settings: average IC50, total ATXN3 protein in cell lysate after 48 h with compound (Table 1)
Procedure: Endogenous Total ATXN3 (tATXN3) Protein Assay
Meso Scale Discovery (MSD) 96-well or 384-well plates were coated overnight at 4° C. with Ataxin 3 mouse monoclonal antibody (Invitrogen, MA3-082) at a concentration of 0.5 μg/mL in PBS (30 μL per well). Plates were then washed three times with 300 μL wash buffer (0.05% TWEEN®-20, polyethylene glycol sorbitan monolaurate, in PBS) and blocked (Meso Scale Diagnostics, R93BA-1; 5% BSA in PBS) for 2 h at RT with rotational shaking and then washed three times with wash buffer.
(§1) Test compounds were serially diluted 3.16-fold in 100% DMSO to generate a 7-point concentration curve. Aliquots of 0.5 μL of diluted compounds were transferred to a 96-well flat bottom plate by a liquid handler. An aliquot of 0.5 μL DMSO was also transferred to separate wells and used as controls. Duplicate samples were set up for each compound concentration and for the DMSO control.
Cells were thawed and incubated in cell culture media (DMEM, 10% FBS, and 1% antibiotic cocktail) for 72 h. Cells were trypsinized, counted, and re-suspended to a concentration of 100,000 cells/mL in cell culture media. A 100 μL aliquot of the cell suspensions were plated at 10,000 cells per well in the compound containing 96 well microtiter plate and incubated for in a cell culture incubator (37° C., 5% CO2, 100% relative humidity). After 48 h, the medium was removed and 50-100 μL of lysis buffer (Meso Scale Diagnostics, R60TX-2) containing 1× halt protease inhibitor cocktail of (Thermo Scientific, Halt™ Protease Inhibitor Cocktail, 78430) per well was added to cells to provide a “cell lysate”. The plate was placed on a shaker at 4° C. for 30 minutes, then stored at −80° C.
Cell lysate samples (25 μL) were transferred to the antibody-coated MSD plate and incubated overnight at 4° C. After removal of the lysates, the plate was washed three times with wash buffer, and 25 μL of Ataxin 3 recombinant rabbit monoclonal antibody (Invitrogen, #702788) secondary antibody (diluted to 0.25 μg/mL in 0.05% TWEEN®-20 in blocking buffer) was added to each well and incubated with shaking for 1-2 h at room temperature. Following incubation with the secondary antibody, the wells were rinsed with wash buffer and then 25 μL of Anti Rabbit Antibody Goat SULFO-TAG Labeled (Meso Scale Diagnostics, R32AB-1) detecting antibody (diluted to […] in 0.05% TWEEN®-20 in blocking buffer) was added to each well and incubated with shaking for 1 h at room temperature. After rinsing three times with wash buffer, 150 μL of Read Buffer T with surfactant (tris-based buffer containing tripropylamine, Meso Scale Diagnostics, R92TC-1) were added to each empty well, and the plate was imaged on a SI 6000 imager (MSD) according to manufacturers' instructions provided for 96- or 384-well plates.
(§2) An average IC50>1 μM is indicated by one star (*), between >0.3 μM and ≤1 μM is indicated by two stars (**), between >0.03 μM and ≤0.3 μM is indicated by three stars (***), and ≤0.03 μM is indicated by four stars (****).

ATXN3 pre-mRNA = experiment: RT-qPCR Assay to Quantify Exon 4 Skipping in ATXN3 pre-mRNA in Cells; type: cell-based; settings: percent exon 4 skipping in ATXN3 pre-mRNA, RT-qPCR of cell lysates; average IC50
Procedure: RT-qPCR Assay to Quantify Exon 4 Skipping in ATXN3 pre-mRNA in Cells
as §1
Cells were thawed and incubated in cell culture media (DMEM, 10% FBS, and 1% antibiotic cocktail) for 72 h. Cells were trypsinized, counted, and re-suspended to a concentration of 100,000 cells/mL in cell culture media. A 100 μL aliquot of the cell suspensions were plated at 10,000 cells per well in the compound containing 96 well microtiter plate and incubated for in a cell culture incubator (37° C., 5% CO2, 100% relative humidity).
After 24 h, media was aspirated from the cells and 50 μL of the RCL2 lysis buffer (10 mM Tris-HCL pH 7.4, 150 mM NaCl, 0.33% IGEPAL® CA-630) was added to each well and incubated at RT for 1 min. Chilled nuclease free water (50 μL per well) was added and the plates were immediately transferred on ice. After 1 min on ice, plates were frozen at −80° C. overnight.
Preparation of RT-qPCR Reaction Mixture:
An aliquot of 2 μL/well of the cell lysates was transferred using the liquid handler to the Armadillo 384-Well PCR plate containing 8 μL/well of the RT-qPCR reaction mixture that was prepared as detailed above. The plates were then sealed with MicroAmp™ Optical Adhesive Film followed by spinning down for 1 min and placed in the CFX384 thermocycler (BioRad).
The RT-qPCR was carried out at the following temperatures for the indicated time: • Step 1: 48° C. (30 min) • Step 2: 95° C. (10 min) • Step 3: 95° C. (15 sec) • Step 4: 60° C. (1 min); then, repeated Steps 3 and 4 for a total of 40 cycles.
The percent exon 4 skipping was calculated for each dose of compound treatment using Equations 1 and 2.
Data were fit to a dose response curve and the IC50 was interpolated using XLfit® statistical and curve fitting package.
as §2

| Compound | pIC50 [1] | pIC50 (ATXN3 pre-mRNA) |
| --- | --- | --- |
| 2-((3R,4S)-3-aminotetrahydro-2H-pyran-4-yl)-5-chloro-7-((thiophen-2-ylmethyl)amino)thieno[3,2-b]pyridine-3-carbonitrile and 2-((3S,4R)-3-aminotetrahydro-2H-pyran-4-yl)-5-chloro-7-((thiophen-2-ylmethyl)amino)thieno[3,2-b]pyridine-3-carbonitrile [Compound 393] | 6.00 to 6.52 | ≥ 7.52 |
| Cc1c([C@H]2CCC[C@@H]2N)sc2c(NCc3cccs3)cc(Cl)nc12 [Compound 6, 2-((1S,2S)-2-aminocyclopentyl)-5-chloro-3-methyl-N-(thiophen-2-ylmethyl)thieno[3,2-b]pyridin-7-amine] | 6.52 to 7.52 | 6.52 to 7.52 |
| CC1=C(C)C[C@H](N)[C@@H](c2sc3c(NCc4ccco4)cc(Cl)nc3c2Cl)C1 [Compound 233, 2-((1S,6S)-6-amino-3,4-dimethylcyclohex-3-en-1-yl)-3,5-dichloro-N-(furan-2-ylmethyl)thieno[3,2-b]pyridin-7-amine] | ≥ 7.52 | ≥ 7.52 |
| N[C@H]1CCCC[C@@H]1c1sc2c(NCc3cccs3)cc(Cl)nc2c1-c1ccccc1 [Compound 129] | 6.00 to 6.52 | 6.52 to 7.52 |
| N[C@H]1CCCC[C@H]1c1sc2c(NCc3cccs3)cc(Cl)nc2c1Cl [Compound 13, 2-((1R,2S)-2-aminocyclohexyl)-3,5-dichloro-N-(thiophen-2-ylmethyl)thieno[3,2-b]pyridin-7-amine] | 6.52 to 7.52 | 6.52 to 7.52 |
| (1R,2R,3S)-2-amino-3-(3-bromo-5-chloro-7-((thiophen-2-ylmethyl)amino)thieno[3,2-b]pyridin-2-yl)cyclohexan-1-ol and (1S,2S,3R)-2-amino-3-(3-bromo-5-chloro-7-((thiophen-2-ylmethyl)amino)thieno[3,2-b]pyridin-2-yl)cyclohexan-1-ol [Compound 228] | ≥ 7.52 | ≥ 7.52 |
| N[C@H]1CCC[C@@H]1c1sc2c(NCc3ccco3)cc(Cl)nc2c1Cl [Compound 117, 2-((1S,2S)-2-aminocyclopentyl)-3,5-dichloro-N-(furan-2-ylmethyl)thieno[3,2-b]pyridin-7-amine] | ≥ 7.52 | ≥ 7.52 |
| N[C@@H]1CC=CC[C@H]1c1sc2c(NCc3ccncc3)nc(Cl)nc2c1Cl [Compound 440, 6-((1R,6R)-6-aminocyclohex-3-en-1-yl)-2,7-dichloro-N-(pyridin-4-ylmethyl)thieno[3,2-d]pyrimidin-4-amine] | < 6.00 | 6.00 to 6.52 |
| N[C@H]1COCC[C@@H]1c1sc2c(NCc3cccs3)cc(Cl)nc2c1Br [Compound 139, 2-((3R,4S)-3-aminotetrahydro-2H-pyran-4-yl)-3-bromo-5-chloro-N-(thiophen-2-ylmethyl)thieno[3,2-b]pyridin-7-amine] | 6.52 to 7.52 | ≥ 7.52 |
| N[C@@H]1CCCCC[C@H]1c1sc2c(NCc3cccs3)cc(Cl)nc2c1Cl [Compound 78, 2-((1R,2R)-2-aminocycloheptyl)-3,5-dichloro-N-(thiophen-2-ylmethyl)thieno[3,2-b]pyridin-7-amine] | < 6.00 | < 6.00 |
| Cc1c([C@H]2CCCCCC[C@H]2N)sc2c(NCc3cccs3)cc(Cl)nc12 [Compound 93, 2-((1S,2R)-2-aminocyclooctyl)-5-chloro-3-methyl-N-(thiophen-2-ylmethyl)thieno[3,2-b]pyridin-7-amine] | < 6.00 | < 6.00 |
| CN(Cc1cccs1)c1cc(Cl)nc2c(C#CCCCO)c([C@H]3CC=CC[C@@H]3N)sc12 [Compound 349, 5-(2-((1S,6S)-6-aminocyclohex-3-en-1-yl)-5-chloro-7-(methyl(thiophen-2-ylmethyl)amino)thieno[3,2-b]pyridin-3-yl)pent-4-yn-1-ol] | 6.52 to 7.52 | 6.52 to 7.52 |
| 2-((1R,2S,6R)-2-amino-6-fluorocyclohexyl)-3-bromo-5-chloro-N-(thiophen-2-ylmethyl)thieno[3,2-b]pyridin-7-amine and 2-((1S,2R,6S)-2-amino-6-fluorocyclohexyl)-3-bromo-5-chloro-N-(thiophen-2-ylmethyl)thieno[3,2-b]pyridin-7-amine [Compound 181] | ≥ 7.52 | ≥ 7.52 |
| N[C@@H]1CCCC[C@H]1c1sc2c(NCc3cccs3)cc(Cl)nc2c1C1CC1 [Compound 137, 2-((1R,2R)-2-aminocyclohexyl)-5-chloro-3-cyclopropyl-N-(thiophen-2-ylmethyl)thieno[3,2-b]pyridin-7-amine] | < 6.00 | < 6.00 |
| N[C@H]1CC=CC[C@@H]1c1sc2c(NCc3ccccc3)nc(Cl)nc2c1Cl [Compound 263, 6-((1S,6S)-6-aminocyclohex-3-en-1-yl)-N-benzyl-2,7-dichlorothieno[3,2-d]pyrimidin-4-amine] | 6.52 to 7.52 | 6.52 to 7.52 |
| CN[C@H]1CC=CC[C@@H]1c1sc2c(NCc3cccs3)cc(Cl)nc2c1C#CCCO [Compound 303, 4-(5-chloro-2-((1S,6S)-6-(methylamino)cyclohex-3-en-1-yl)-7-((thiophen-2-ylmethyl)amino)thieno[3,2-b]pyridin-3-yl)but-3-yn-1-ol] | 6.52 to 7.52 | 6.52 to 7.52 |
| 2-((2R,3R)-3-aminobicyclo[3.2.1]octan-2-yl)-3-bromo-5-chloro-N-(thiophen-2-ylmethyl)thieno[3,2-b]pyridin-7-amine and 2-((2S,3S)-3-aminobicyclo[3.2.1]octan-2-yl)-3-bromo-5-chloro-N-(thiophen-2-ylmethyl)thieno[3,2-b]pyridin-7-amine [Compound 85] | < 6.00 | < 6.00 |
| C#Cc1c([C@H]2CCCC[C@@H]2N)sc2c(NCc3ccco3)cc(Cl)nc12 [Compound 357, 2-((1S,2S)-2-aminocyclohexyl)-5-chloro-3-ethynyl-N-(furan-2-ylmethyl)thieno[3,2-b]pyridin-7-amine] | 6.52 to 7.52 | 6.52 to 7.52 |
| N[C@@H]1CCCC[C@H]1c1sc2c(NCc3ccccc3)nc(Cl)nc2c1Br [Compound 66, 6-((1R,2R)-2-aminocyclohexyl)-N-benzyl-7-bromo-2-chlorothieno[3,2-d]pyrimidin-4-amine] | < 6.00 | < 6.00 |
| N[C@H]1CCCO[C@@H]1c1c(Cl)c2nc(Cl)nc(NCc3cccs3)c2n1C(F)F [Compound 305, 6-((2S,3S)-3-aminotetrahydro-2H-pyran-2-yl)-2,7-dichloro-5-(difluoromethyl)-N-(thiophen-2-ylmethyl)-5H-pyrrolo[3,2-d]pyrimidin-4-amine] | 6.52 to 7.52 | 6.52 to 7.52 |
